Calls of active or inactive are those of the source.
How the values were obtained:
[1] = HeLa cell viability loss – 24 h, dry powder, set 2, cytotoxicity control, dose response (AID 651774); assay type: functional, cell-based
[2] = Luminescence Cell-Based Dose Retest to Confirm Inhibitors of Cancer Stem Cells. [Related pubchem assays (depositor defined):AID2717, AID2721]; assay type: functional; conditions: Homo sapiens
Cytochrome P450 2C9 = Cytochrome P450 2C9 (Homo sapiens, UniProt P11712)
[3] = viability of HCT116 lacking mutant beta-catenin – cell-based, human colon tumor, dose response (AID 1045); assay type: functional;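 note: HCT116 colon tumor cells with beta catenin knocked out; cells exposed to compound for 60 hours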
[4] = viability of PTEN-deleted HCT116 cells – cell-based, HCT116 PTEN knockout, dose response (AID 1047); assay type: functional;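 note: HCT116 colon tumor cells with PTEN knocked out; cells exposed to compound for 60 hours before readout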
[5] = target: Disintegrin and metalloproteinase domain-containing protein 17 (Homo sapiens, UniProt P78536); assay: inhibition of ADAM17 substrate cleavage – biochemical, quenched FRET substrate, counter-screen for ADAM10 exosite inhibitor project, dose response (AID 743253)
[6] = potency of ADAM10 substrate cleavage blockers – biochemical, QFRET, dose response (AID 743254);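 note: ADAM10 enzyme with the DM2 quenched FRET peptide as substrate; EDANS fluorescence gain as the protease cuts the substrate; inhibitor potency against ADAM10 proteolytic activity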
[7] = A549 cell cytotoxicity, dose response, cytotoxicity control, plate reader, cherry-pick, antagonist series (AID 743412); assay type: functional, cell-based
[8] = viability loss in HEK293 cells – cell-based, plate reader, cherry-picked samples, cytotoxicity control, dose response (AID 743446); assay type: functional
[9] = blockers of bursicon-stimulated LGR2 cAMP reporter – cell-based, HEK293, CRE-luciferase reporter, cherry pick, set 2, dose response (AID 743343); assay type: functional;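 note: transfected cells were stimulated with diluted bursicon conditioned medium after compound addition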
[10] = toxicity toward HepG2 liver cells – cell-based, plate reader, cherry-pick, antagonist series, cytotoxicity control, dose response (AID 743416); assay type: functional
[11] = blockade of melanocortin 4 receptor signaling – cell-based, plate reader, cherry pick, counter-screen for LGR2 antagonist project, dose response (AID 743444); assay type: functional;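 note: transfected HEK 293 cells stimulated with alpha-MSH peptide; potency of inhibitors of the alpha-MSH evoked signal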
[12] = target: T1, Histone-lysine N-methyltransferase NSD2 (Homo sapiens, UniProt O96028); assay type: biochemical
T1 sequence (O96028 whole entry): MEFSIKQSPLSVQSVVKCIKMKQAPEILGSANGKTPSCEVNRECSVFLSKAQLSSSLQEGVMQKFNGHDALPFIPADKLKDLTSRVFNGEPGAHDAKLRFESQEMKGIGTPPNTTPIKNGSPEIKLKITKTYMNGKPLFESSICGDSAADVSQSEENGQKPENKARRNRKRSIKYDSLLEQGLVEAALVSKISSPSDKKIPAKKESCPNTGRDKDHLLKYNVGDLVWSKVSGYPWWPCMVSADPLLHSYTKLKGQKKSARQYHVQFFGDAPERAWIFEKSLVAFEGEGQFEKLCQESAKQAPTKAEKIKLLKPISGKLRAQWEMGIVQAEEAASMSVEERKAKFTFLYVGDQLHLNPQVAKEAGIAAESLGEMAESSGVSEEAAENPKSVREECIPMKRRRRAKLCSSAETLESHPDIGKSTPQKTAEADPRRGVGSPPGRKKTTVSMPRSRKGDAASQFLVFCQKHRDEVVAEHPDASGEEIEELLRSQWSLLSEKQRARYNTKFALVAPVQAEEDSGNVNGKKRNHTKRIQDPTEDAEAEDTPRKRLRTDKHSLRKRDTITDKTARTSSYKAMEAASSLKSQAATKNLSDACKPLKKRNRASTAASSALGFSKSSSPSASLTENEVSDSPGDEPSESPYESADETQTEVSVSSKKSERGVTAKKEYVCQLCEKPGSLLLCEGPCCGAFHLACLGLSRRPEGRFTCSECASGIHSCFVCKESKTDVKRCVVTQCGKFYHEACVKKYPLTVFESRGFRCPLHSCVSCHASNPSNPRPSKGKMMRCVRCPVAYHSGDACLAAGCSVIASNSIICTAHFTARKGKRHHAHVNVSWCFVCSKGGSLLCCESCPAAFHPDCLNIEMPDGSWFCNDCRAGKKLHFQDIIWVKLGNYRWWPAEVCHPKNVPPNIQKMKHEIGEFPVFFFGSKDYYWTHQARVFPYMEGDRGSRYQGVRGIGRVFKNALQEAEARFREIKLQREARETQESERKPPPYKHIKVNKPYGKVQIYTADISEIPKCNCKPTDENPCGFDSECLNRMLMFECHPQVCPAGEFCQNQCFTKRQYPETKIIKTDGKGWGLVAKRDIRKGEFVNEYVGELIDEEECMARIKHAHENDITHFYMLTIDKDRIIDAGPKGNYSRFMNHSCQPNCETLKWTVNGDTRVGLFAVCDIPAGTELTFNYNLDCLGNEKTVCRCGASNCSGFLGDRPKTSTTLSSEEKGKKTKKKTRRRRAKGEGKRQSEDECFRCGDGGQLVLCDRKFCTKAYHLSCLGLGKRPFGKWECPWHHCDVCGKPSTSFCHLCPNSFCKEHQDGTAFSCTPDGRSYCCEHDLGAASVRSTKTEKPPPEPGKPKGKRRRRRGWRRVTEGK

CHO = CHO cell viability loss, potency – luminescence, cytotoxicity control for TLR9-MyD88 binding inhibitor project, dose response (AID 588339); assay type: functional, cell-based, hamster; conditions: Cricetulus griseus;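 note: CHO cells stably coexpressing TLR9 and MyD88 fusions from primary screen; compound exposure lasted 48 hours before viability readout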
Genome polyprotein = Genome polyprotein (dengue virus type 2, UniProt P29990); assay: flavivirus cap methylation enzyme inhibition – biochemical, confirmation dose response, primary screen (AID 588689); assay type: functional
Hexokinase HKDC1 = target: T2, Hexokinase HKDC1 (Homo sapiens, UniProt Q2TB90); assay: inhibition of HKDC1 glucose phosphorylation – biochemical, W721R variant, dose response (AID 504729); assay type: functional
T2 sequence (Q2TB90 whole entry): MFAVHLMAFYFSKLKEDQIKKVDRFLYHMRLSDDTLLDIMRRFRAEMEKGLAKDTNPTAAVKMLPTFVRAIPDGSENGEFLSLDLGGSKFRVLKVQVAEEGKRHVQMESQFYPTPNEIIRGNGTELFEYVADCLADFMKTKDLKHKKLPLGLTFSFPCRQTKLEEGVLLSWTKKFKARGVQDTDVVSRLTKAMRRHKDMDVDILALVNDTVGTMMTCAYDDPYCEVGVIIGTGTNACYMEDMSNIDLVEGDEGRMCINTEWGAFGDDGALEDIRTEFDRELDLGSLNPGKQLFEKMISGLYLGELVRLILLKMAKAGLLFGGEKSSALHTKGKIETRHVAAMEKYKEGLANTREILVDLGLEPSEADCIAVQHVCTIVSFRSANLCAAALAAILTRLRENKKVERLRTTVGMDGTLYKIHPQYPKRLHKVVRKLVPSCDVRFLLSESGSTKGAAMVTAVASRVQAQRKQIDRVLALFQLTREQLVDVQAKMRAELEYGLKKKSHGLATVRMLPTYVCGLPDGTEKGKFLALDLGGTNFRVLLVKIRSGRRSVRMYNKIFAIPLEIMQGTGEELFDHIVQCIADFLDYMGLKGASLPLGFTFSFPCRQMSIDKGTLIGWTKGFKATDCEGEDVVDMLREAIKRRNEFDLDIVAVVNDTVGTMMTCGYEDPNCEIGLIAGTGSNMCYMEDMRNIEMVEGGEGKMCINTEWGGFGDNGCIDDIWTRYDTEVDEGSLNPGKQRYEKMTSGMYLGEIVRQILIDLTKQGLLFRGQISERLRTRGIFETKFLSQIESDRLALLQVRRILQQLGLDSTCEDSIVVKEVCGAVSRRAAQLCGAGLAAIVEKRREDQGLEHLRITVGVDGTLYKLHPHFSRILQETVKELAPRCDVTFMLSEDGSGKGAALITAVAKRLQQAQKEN

[13] = target: Heat shock protein HSP 90-alpha (Homo sapiens, UniProt P07900); assay type: functional, organism-based
[14] = viability loss in THP-1 monocytes – THP-1 cells, cytotoxicity control for Vif-APOBEC3G degradation inhibitor project, dose response (AID 1117359); assay type: functional; conditions: THP-1
Beta Lactamase = Beta Lactamase (Pseudomonas aeruginosa, UniProt Q932Y6); assay: BLA reporter interference, concentration series – BLA reporter cells, FRET fluorescence, artefact control for TLR9-MyD88 binding inhibitor project, dose response (AID 588341); assay type: cell-based;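 note: cell based assay in CHO-K1 cells stably expressing beta-lactamase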
[15] = reduced cellular PGC1a acetyl-lysine signal – cell-based, cherry-picked samples, dose response (AID 720514); assay type: functional;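 note: potency may reflect raised or lowered acetylation signal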
[16] = activation of miR-122 Renilla sensor silencing – cell-based, Huh7 psiCHECK-miR122, Renilla luciferase, cherry-picked, dose response (AID 651956); assay type: functional;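 note: huh7 hepatoma cells stably carrying a psiCHECK-2 miR-122 sensor plasmid; renilla luciferase signal reporting endogenous miR-122 activity after 48 h compound exposure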
[17] = general mammalian cell viability loss – inhibitor set, cherry-pick, set 2, cytotoxicity control for miR-122 modulator project, dose response (AID 720697); assay type: functional, cell-based
[18] = growth inhibition of yeast DHODH-expressing 3D7 parasites – SYBR Green, dry powder samples, dose response (AID 1159570); assay type: functional, cell-based;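 note: parasite growth measured after 72 hours of compound exposure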
[19] = Dd2 malaria parasite growth inhibition potency – SYBR Green, dry powder samples, dose response (AID 1159566); assay type: functional, cell-based;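 note: potency for growth inhibition with lower SYBR green DNA signal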
[20] = toxicity to human HepG2 hepatoma cells – cell-based, plate reader, dry powder samples, cytotoxicity control, dose response (AID 1159569); assay type: functional;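 note: inhibitor potency with signal falling toward the positive control level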
[21] = growth inhibition of PfATP4-mutant resistant parasites – NITD609-resistant line, SYBR Green, dry powder, dose response (AID 1159571); assay type: functional, cell-based;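 note: parasites synchronized at ring stage by sorbitol before testing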
[22] = toxicity to human hepatoma HepG2 cells – cell-based, cherry-picked samples, cytotoxicity control, dose response (AID 1159577); assay type: functional
[23] = P. falciparum Dd2 growth inhibitors, dose response, SYBR Green, cherry-picked samples (AID 1159567); assay type: functional, cell-based
[24] = intracellular Trypanosoma cruzi inhibitors in host cells – cell-based, plate reader, cherry-pick samples, set 3, dose response (AID 651818); assay type: functional;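 note: compounds incubated with infected cells for about four days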

Sequence of Disintegrin and metalloproteinase domain-containing protein 17 (P78536 whole entry, the tested form may be a part): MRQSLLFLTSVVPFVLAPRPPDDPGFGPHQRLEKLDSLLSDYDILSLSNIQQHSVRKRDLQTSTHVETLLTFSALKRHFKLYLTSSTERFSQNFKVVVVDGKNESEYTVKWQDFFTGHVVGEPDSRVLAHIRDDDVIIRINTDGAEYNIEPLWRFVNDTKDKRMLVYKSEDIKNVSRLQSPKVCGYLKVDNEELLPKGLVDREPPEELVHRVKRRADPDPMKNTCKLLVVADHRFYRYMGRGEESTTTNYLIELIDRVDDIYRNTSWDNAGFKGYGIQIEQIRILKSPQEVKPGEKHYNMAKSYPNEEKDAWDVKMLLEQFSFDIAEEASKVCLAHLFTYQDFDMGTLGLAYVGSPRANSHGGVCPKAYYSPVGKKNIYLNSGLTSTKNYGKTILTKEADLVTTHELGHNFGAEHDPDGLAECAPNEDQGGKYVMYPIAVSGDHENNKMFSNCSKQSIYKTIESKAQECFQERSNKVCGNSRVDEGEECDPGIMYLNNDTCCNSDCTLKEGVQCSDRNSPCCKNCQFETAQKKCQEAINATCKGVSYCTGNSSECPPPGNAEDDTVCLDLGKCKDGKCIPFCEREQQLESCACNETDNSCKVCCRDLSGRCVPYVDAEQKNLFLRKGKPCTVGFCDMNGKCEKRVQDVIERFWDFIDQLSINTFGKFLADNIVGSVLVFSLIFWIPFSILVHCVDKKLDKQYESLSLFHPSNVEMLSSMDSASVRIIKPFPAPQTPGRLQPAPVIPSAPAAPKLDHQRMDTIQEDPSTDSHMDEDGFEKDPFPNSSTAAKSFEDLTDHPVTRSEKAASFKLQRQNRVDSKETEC
Sequence of Cytochrome P450 2C9 (P11712 whole entry): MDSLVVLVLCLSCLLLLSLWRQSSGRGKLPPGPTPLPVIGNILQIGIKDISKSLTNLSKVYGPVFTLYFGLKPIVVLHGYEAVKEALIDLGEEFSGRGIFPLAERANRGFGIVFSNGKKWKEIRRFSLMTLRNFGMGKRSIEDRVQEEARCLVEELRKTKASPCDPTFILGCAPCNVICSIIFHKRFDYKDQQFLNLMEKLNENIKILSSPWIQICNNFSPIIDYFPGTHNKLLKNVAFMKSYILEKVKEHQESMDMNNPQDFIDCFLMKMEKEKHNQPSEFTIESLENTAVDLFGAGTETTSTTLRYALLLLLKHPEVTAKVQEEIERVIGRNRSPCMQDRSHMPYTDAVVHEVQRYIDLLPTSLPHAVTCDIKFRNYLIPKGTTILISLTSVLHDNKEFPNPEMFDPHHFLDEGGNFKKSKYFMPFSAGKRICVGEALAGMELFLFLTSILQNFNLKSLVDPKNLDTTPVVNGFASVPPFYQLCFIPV
Sequence of Genome polyprotein (P29990 2492-3391 limits assumed): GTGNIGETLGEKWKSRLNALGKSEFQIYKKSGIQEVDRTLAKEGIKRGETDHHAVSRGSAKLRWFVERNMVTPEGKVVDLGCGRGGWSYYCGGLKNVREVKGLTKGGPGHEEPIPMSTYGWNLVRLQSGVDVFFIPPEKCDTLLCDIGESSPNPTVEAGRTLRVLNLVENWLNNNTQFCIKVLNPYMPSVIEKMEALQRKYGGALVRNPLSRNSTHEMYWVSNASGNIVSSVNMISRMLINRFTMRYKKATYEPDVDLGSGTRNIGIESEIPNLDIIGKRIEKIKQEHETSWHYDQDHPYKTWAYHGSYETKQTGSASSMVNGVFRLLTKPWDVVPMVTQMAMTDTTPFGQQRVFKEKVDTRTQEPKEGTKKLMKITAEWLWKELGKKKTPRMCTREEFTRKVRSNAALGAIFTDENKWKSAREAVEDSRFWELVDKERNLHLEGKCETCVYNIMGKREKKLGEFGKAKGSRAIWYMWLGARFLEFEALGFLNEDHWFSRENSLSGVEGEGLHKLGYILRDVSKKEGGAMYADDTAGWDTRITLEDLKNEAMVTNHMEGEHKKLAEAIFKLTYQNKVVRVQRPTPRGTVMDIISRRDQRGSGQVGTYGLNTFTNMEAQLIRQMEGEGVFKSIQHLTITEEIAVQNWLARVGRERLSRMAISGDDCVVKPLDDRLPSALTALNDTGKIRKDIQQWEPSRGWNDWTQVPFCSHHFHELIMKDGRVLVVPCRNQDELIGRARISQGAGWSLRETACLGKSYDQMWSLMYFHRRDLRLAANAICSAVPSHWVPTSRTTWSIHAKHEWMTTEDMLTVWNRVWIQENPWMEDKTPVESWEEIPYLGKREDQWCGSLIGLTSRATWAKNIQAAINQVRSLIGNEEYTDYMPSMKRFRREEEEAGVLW
Sequence of Beta Lactamase (Q932Y6 whole entry): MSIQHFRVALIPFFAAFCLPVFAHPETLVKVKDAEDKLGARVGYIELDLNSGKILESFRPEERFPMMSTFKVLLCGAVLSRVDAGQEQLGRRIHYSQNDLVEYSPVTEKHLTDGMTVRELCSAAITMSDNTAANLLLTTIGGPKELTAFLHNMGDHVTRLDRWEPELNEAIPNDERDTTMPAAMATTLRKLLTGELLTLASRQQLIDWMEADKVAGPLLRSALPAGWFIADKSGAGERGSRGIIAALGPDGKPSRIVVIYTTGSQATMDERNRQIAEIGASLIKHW

Q: With CCn1nnnc1NCc1cccn1C as the compound, how does the AC50 [1] read?
A: Its AC50 is 31.1 µM (active).

Q: Which AC50 [2] does the source give for C=C(C)COc1ccc(-c2[nH]nc(C)c2-c2ccc(OC)cc2)c(O)c1 here?
A: The AC50 was 3.41 µM (active).

Q: And the AC50 (Cytochrome P450 2C9)?
A: The AC50 was 25.1 µM (inconclusive).

Q: And the EC50 [3]?
A: Its EC50 is 18 µM (active).

Q: And the EC50 [4]?
A: The EC50 was 17.7 µM (active).

Q: What about the IC50 [5] of the same compound?
A: The IC50 was > 69.6 µM (inactive).

Q: And the IC50 [6]?
A: The IC50 was 9.09 µM (active).

Q: With CCn1nnnc1NCc1ccc(N2CCCC2)cc1 as the compound, how does the AC50 [1] read?
A: The AC50 was > 70 µM (inactive).

Q: For COc1ccc2nc(NC(=O)c3ccco3)sc2c1, which AC50 [7] is on record?
A: Its AC50 is > 52 µM (inactive).

Q: What about the AC50 [8] of the same compound?
A: Its AC50 is > 52 µM (inactive).

Q: And the AC50 [9]?
A: Its AC50 is 6.48 µM (active).

Q: And the AC50 [10]?
A: Its AC50 is > 52 µM (inactive).

Q: What about the AC50 [11] of the same compound?
A: The AC50 was 9.96 µM (active).

Q: With O=C1C(Cl)=C(Oc2ccccc2)C(=O)c2ccccc21 as the compound, how does the AC50 [12] read?
A: The AC50 was 0.598 µM (active).

Q: And the IC50 (CHO)?
A: Its IC50 is 0.738 µM (active).

Q: What about the IC50 (Genome polyprotein) of the same compound?
A: The IC50 was 4.63 µM (active).

Q: What about the IC50 (Hexokinase HKDC1) of the same compound?
A: Its IC50 is 4.47 µM (active).

Q: And the AC50 [13]?
A: Its AC50 is 2.7 µM (active).

Q: What about the CC50 [14] of the same compound?
A: The CC50 was > 40 µM (active).

Q: And the IC50 (Beta Lactamase)?
A: Its IC50 is 10.2 µM (inactive).

Q: For CCN(CC(=O)Nc1ccccc1C(F)(F)F)C(=O)CCSc1ccc(F)cc1, which AC50 [15] is on record?
A: Its AC50 is 27 µM (active).

Q: For CCC(=O)N1[C@H](CO)[C@H](c2ccccc2)[C@H]1CN(C(C)C)S(C)(=O)=O, which AC50 [16] is on record?
A: Its AC50 is 35.4 µM (active).

Q: And the AC50 [17]?
A: Its AC50 is 0.525 µM (active).

Q: With C[C@H](CO)N1C[C@H](C)[C@H](CN(C)Cc2ccc(C(F)(F)F)cc2)Oc2c(NC(=O)c3nc4ccccc4s3)cccc2C1=O as the compound, how does the AC50 [18] read?
A: The AC50 was 3.74 µM (active).

Q: And the AC50 [19]?
A: The AC50 was 0.823 µM (active).

Q: What about the AC50 [20] of the same compound?
A: The AC50 was 46.2 µM (active).

Q: What about the AC50 [21] of the same compound?
A: Its AC50 is 1.69 µM (active).

Q: What about the AC50 [22] of the same compound?
A: The AC50 was > 39 µM (inactive).

Q: What about the AC50 [23] of the same compound?
A: The AC50 was 2.71 µM (active).

Q: And the AC50 [24]?
A: Its AC50 is 0.94 µM (active).

Reference: ChEMBL document CHEMBL1201862, “PubChem BioAssay data set” (2004)
